The record followed here is patent publication US20080171355A1, “DEVICE FOR TESTING THE EFFECTIVENESS OF DISINFECTANTS ON PROTOZOAN PARASITES” (priority 2006, published 2008).

This assay has as its system Oocysts of Eimeria acervulina. In kind it is cell-based.

On to `CC(=O)OO` [Peracetic Acid], for which the “Sporulation Rate (%)” value turned out to be 65.9%.
